This assay addresses T1, HDAC 2 (Homo sapiens, UniProt Q92769).
T1 construct: gene HDAC2
The experiment in a line: HDAC enzyme inhibition assay (details not shown). The format is biochemical.

Results on one molecule are retold here after PMC11206922, “Novel Histone Deacetylase (HDAC) Inhibitor Induces Apoptosis and Suppresses Invasion via E-Cadherin Upregulation in Pancreatic Ductal Adenocarcinoma (PDAC)” (Pharmaceuticals, 2024).

T1 sequence (Q92769 whole entry): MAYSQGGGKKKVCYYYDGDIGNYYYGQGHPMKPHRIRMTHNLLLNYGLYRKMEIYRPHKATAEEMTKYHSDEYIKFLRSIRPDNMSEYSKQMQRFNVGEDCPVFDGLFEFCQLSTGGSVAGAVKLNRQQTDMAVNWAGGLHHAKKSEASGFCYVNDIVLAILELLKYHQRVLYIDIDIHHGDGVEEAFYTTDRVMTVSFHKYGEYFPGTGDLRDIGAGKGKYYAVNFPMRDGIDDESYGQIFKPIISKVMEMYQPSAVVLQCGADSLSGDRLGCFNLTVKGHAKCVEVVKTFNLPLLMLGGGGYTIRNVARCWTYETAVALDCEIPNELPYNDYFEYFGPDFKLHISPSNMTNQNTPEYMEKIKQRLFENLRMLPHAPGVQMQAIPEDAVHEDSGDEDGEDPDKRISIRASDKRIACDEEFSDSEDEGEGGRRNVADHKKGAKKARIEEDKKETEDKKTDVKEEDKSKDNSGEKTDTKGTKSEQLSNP

As for `COc1cc(NC(=O)NCCCCCCC(=O)NO)c2nc(OC)cc(C)c2c1` [compound 8, MPK544], the IC50 was found to be 58 ± 20 nM.
